Source: article PMC8591201, “Anti-Tumor Activity of AZD4547 Against NTRK1 Fusion Positive Cancer Cells Through Inhibition of NTRKs” (Frontiers in Oncology, 2021)

Assays:
Assay in all cases: cells
Set-up in all cases: Anti-proliferation, 10-point dose response, CellTiter-Glo luminescence (MTT stated for KM12(Luc)), GI50 fitted in Prism
8505C = conditions: Homo sapiens, 8505C, 72 h, read-out: GI50 (µM) a
A375 = conditions: Homo sapiens, A-375, 72 h, read-out: GI50 (µM) a
CAPAN-1 = conditions: Homo sapiens, CAPAN-1, 72 h, read-out: GI50 (µM) a
HCC-78 = conditions: Homo sapiens, HCC78, 72 h, read-out: GI50 (µM) a
HuH-7 = conditions: Homo sapiens, Huh-7, 72 h, read-out: GI50 (µM) a
MDA-MB-468 = conditions: Homo sapiens, MDA-MB-468, 72 h, read-out: GI50 (µM) a
MKN28 = conditions: Homo sapiens, MKN-28, 72 h, read-out: GI50 (µM) a
NCI-H23 = conditions: Homo sapiens, NCI-H23, 72 h, read-out: GI50 (µM) a
SK-HEP-1 = conditions: Homo sapiens, SK-HEP1, 72 h, read-out: GI50 (µM) a
SW480 = conditions: Homo sapiens, SW480, 72 h, read-out: GI50 (µM) a
U-2-OS = conditions: Homo sapiens, U2OS, 72 h, read-out: GI50 (µM) a
U251 = conditions: Homo sapiens, U-251, 72 h, read-out: GI50 (µM) a

Question: With `COc1cc(CCc2cc(NC(=O)c3ccc(N4C[C@@H](C)N[C@@H](C)C4)cc3)n[nH]2)cc(OC)c1` [AZD4547] as the compound, how does the GI50 (8505C) read?
Answer: Its GI50 is 14.7 µM.

Question: What about the GI50 (A375) of the same compound?
Answer: Its GI50 is 11.4 µM.

Question: And the GI50 (CAPAN-1)?
Answer: Its GI50 is 17.5 µM.

Question: And the GI50 (HCC-78)?
Answer: The GI50 was 7.17 µM.

Question: What about the GI50 (HuH-7) of the same compound?
Answer: The GI50 was 1.35 µM.

Question: And the GI50 (MDA-MB-468)?
Answer: The GI50 was 11.5 µM.

Question: And the GI50 (MKN28)?
Answer: The GI50 was 10.9 µM.

Question: And the GI50 (NCI-H23)?
Answer: Its GI50 is 10.8 µM.

Question: What about the GI50 (SK-HEP-1) of the same compound?
Answer: The GI50 was 12.6 µM.

Question: And the GI50 (SW480)?
Answer: Its GI50 is 14.1 µM.

Question: What about the GI50 (U-2-OS) of the same compound?
Answer: Its GI50 is 0.43 µM.

Question: And the GI50 (U251)?
Answer: The GI50 was 11.6 µM.
